“And” between values parts separate entries of the source, which are not always exact repeats. Equal entries are not always repeated. Each block holds one compound with its values, some of them ahead of it.
Test system: 521955-158-R6-J3-PDC complex spheroid growth, % test/control
Assay: Anticancer human tumor 521955-158-R6-J3-PDC patient-derived pancreatic carcinoma cell line growth inhibition [Asc]
Conditions: for viability, T/C: stronger effect = lower value
Method in brief: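 Complex spheroids combining tumor cells with HUVEC endothelial cells and human MSCs, at 37 degrees C, 5% CO2; agents tested alone or combined, half-log dilutions from at or near clinical Cmax, or 10 microM if Cmax unknown.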

[1] = curve of first compound, second compound 0.00949 µM
[2] = curve of first compound, second compound 0.03 µM
[3] = curve of first compound, second compound 0.0949 µM
[4] = curve of first compound, second compound 0.3 µM
[5] = curve of first compound, second compound 0.949 µM
[6] = curve of first compound, second compound 3 µM
[7] = second compound 0.00949 µM, first compound 0.00316 µM
[8] = second compound 0.00949 µM, first compound 0.01 µM
[9] = second compound 0.00949 µM, first compound 0.0316 µM
[10] = second compound 0.00949 µM, first compound 0.1 µM
[11] = second compound 0.00949 µM, first compound 0.316 µM
[12] = second compound 0.00949 µM, first compound 1 µM
[13] = second compound 0.03 µM, first compound 0.00316 µM
[14] = second compound 0.03 µM, first compound 0.01 µM
[15] = second compound 0.03 µM, first compound 0.0316 µM
[16] = second compound 0.03 µM, first compound 0.1 µM
[17] = second compound 0.03 µM, first compound 0.316 µM
[18] = second compound 0.03 µM, first compound 1 µM
[19] = second compound 0.0949 µM, first compound 0.00316 µM
[20] = second compound 0.0949 µM, first compound 0.01 µM
[21] = second compound 0.0949 µM, first compound 0.0316 µM
[22] = second compound 0.0949 µM, first compound 0.1 µM
[23] = second compound 0.0949 µM, first compound 0.316 µM
[24] = second compound 0.0949 µM, first compound 1 µM
[25] = second compound 0.3 µM, first compound 0.00316 µM
[26] = second compound 0.3 µM, first compound 0.01 µM
[27] = second compound 0.3 µM, first compound 0.0316 µM
[28] = second compound 0.3 µM, first compound 0.1 µM
[29] = second compound 0.3 µM, first compound 0.316 µM
[30] = second compound 0.3 µM, first compound 1 µM
[31] = second compound 0.949 µM, first compound 0.00316 µM
[32] = second compound 0.949 µM, first compound 0.01 µM
[33] = second compound 0.949 µM, first compound 0.0316 µM
[34] = second compound 0.949 µM, first compound 0.1 µM
[35] = second compound 0.949 µM, first compound 0.316 µM
[36] = second compound 0.949 µM, first compound 1 µM
[37] = second compound 3 µM, first compound 0.00316 µM
[38] = second compound 3 µM, first compound 0.01 µM
[39] = second compound 3 µM, first compound 0.0316 µM
[40] = second compound 3 µM, first compound 0.1 µM
[41] = second compound 3 µM, first compound 0.316 µM
[42] = second compound 3 µM, first compound 1 µM
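Further: spheroids exposed to compounds for 7 days.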
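Wherever viability, T/C is given: 100% = DMSO vehicle control wells.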

IC50 [1]: 563 nM | IC50 [2]: 587 nM | IC50 [3]: 389 nM | IC50 [4]: 559 nM | IC50 [5]: 380 nM | IC50 [6]: 322 nM
SMILES: O=C(c1ccc(F)c(F)c1Nc1ccc(I)cc1F)N1CC(O)([C@@H]2CCCCN2)C1 + CCN1C(C(=O)NC23CCC(C(=O)O)(CC2)CC3)C(c2cccc(Cl)c2F)C2(C(=O)Nc3cc(Cl)ccc32)C12CCCCC2
viability, T/C [7]: 85.8% | viability, T/C [8]: 102% | viability, T/C [9]: 134% | viability, T/C [10]: 105% | viability, T/C [11]: 65.1% | viability, T/C [12]: 35% | viability, T/C [13]: 113% | viability, T/C [14]: 106% | viability, T/C [15]: 104% | viability, T/C [16]: 104% | viability, T/C [17]: 68.5% | viability, T/C [18]: 34% | viability, T/C [19]: 104% | viability, T/C [20]: 111% | viability, T/C [21]: 114% | viability, T/C [22]: 90.7% | viability, T/C [23]: 53.5% | viability, T/C [24]: 38.3% | viability, T/C [25]: 121% | viability, T/C [26]: 117% | viability, T/C [27]: 120% | viability, T/C [28]: 86.3% | viability, T/C [29]: 63.2% | viability, T/C [30]: 38.7% | viability, T/C [31]: 118% | viability, T/C [32]: 115% | viability, T/C [33]: 120% | viability, T/C [34]: 80% | viability, T/C [35]: 57.2% | viability, T/C [36]: 38.5% | viability, T/C [37]: 103% | viability, T/C [38]: 112% | viability, T/C [39]: 104% | viability, T/C [40]: 78.5% | viability, T/C [41]: 52.5% | viability, T/C [42]: 34.4%

IC50 (curve of compound): 5040 nM and 4980 nM and 5380 nM
SMILES: C=C(F)C(=O)N1CCN(c2nc(OCC3CCCN3C)nc3c2CCN(c2cccc4cccc(Cl)c24)C3)CC1CC#N (stereo not drawn)
viability, T/C (compound 0.0316 µM): 102% (2×) and 93.7% | viability, T/C (compound 0.1 µM): 93.2% and 115% and 87.3% | viability, T/C (compound 0.316 µM): 78.6% and 89.8% and 90.9% | viability, T/C (compound 1 µM): 89.2% and 87.9% and 95.7% | viability, T/C (compound 3.16 µM): 83.7% and 86.3% and 93.3% | viability, T/C (compound 10 µM): 0.33% and 0.31% and 0.93%

IC50 [1]: > 1000 nM | IC50 [2]: > 1000 nM | IC50 [3]: > 1000 nM | IC50 [4]: > 1000 nM | IC50 [5]: > 1000 nM | IC50 [6]: > 1000 nM
SMILES: CCN1CCN(Cc2ccc(Nc3ncc(F)c(-c4cc(F)c5nc(C)n(C(C)C)c5c4)n3)nc2)CC1 + CCN1C(C(=O)NC23CCC(C(=O)O)(CC2)CC3)C(c2cccc(Cl)c2F)C2(C(=O)Nc3cc(Cl)ccc32)C12CCCCC2
viability, T/C [7]: 102% | viability, T/C [8]: 90.3% | viability, T/C [9]: 79.1% | viability, T/C [10]: 101% | viability, T/C [11]: 89.1% | viability, T/C [12]: 88.6% | viability, T/C [13]: 101% | viability, T/C [14]: 104% | viability, T/C [15]: 88.5% | viability, T/C [16]: 92.2% | viability, T/C [17]: 92.9% | viability, T/C [18]: 102% | viability, T/C [19]: 112% | viability, T/C [20]: 101% | viability, T/C [21]: 97.4% | viability, T/C [22]: 95.5% | viability, T/C [23]: 91.3% | viability, T/C [24]: 106% | viability, T/C [25]: 106% | viability, T/C [26]: 112% | viability, T/C [27]: 102% | viability, T/C [28]: 87.8% | viability, T/C [29]: 93.1% | viability, T/C [30]: 90.2% | viability, T/C [31]: 108% | viability, T/C [32]: 98.5% | viability, T/C [33]: 109% | viability, T/C [34]: 93.2% | viability, T/C [35]: 93.3% | viability, T/C [36]: 102% | viability, T/C [37]: 106% | viability, T/C [38]: 101% | viability, T/C [39]: 91.5% | viability, T/C [40]: 84.8% | viability, T/C [41]: 103% | viability, T/C [42]: 93.2%

IC50 (curve of first compound, second compound 0.00316 µM): > 10000 nM | IC50 (curve of first compound, second compound 0.01 µM): > 10000 nM | IC50 (curve of first compound, second compound 0.0316 µM): > 10000 nM | IC50 (curve of first compound, second compound 0.1 µM): > 10000 nM | IC50 (curve of first compound, second compound 0.316 µM): > 10000 nM | IC50 (curve of first compound, second compound 1 µM): > 10000 nM
SMILES: C=CC(=O)N1CCN(c2nc(=O)n(-c3c(C)ccnc3C(C)C)c3nc(-c4c(O)cccc4F)c(F)cc23)C(C)C1 (stereo not drawn) + CNC(C)C(=O)NC1CN(S(=O)(=O)c2cccc(S(=O)(=O)N3CCC4CCC(C(=O)NC(c5ccccc5)c5ccccc5)N4C(=O)C(NC(=O)C(C)NC)C3)c2)CCC2CCC(C(=O)NC(c3ccccc3)c3ccccc3)N2C1=O
viability, T/C (second compound 0.00316 µM, first compound 0.0316 µM): 98.2% | viability, T/C (second compound 0.00316 µM, first compound 0.1 µM): 110% | viability, T/C (second compound 0.00316 µM, first compound 0.316 µM): 116% | viability, T/C (second compound 0.00316 µM, first compound 1 µM): 121% | viability, T/C (second compound 0.00316 µM, first compound 3.16 µM): 98.8% | viability, T/C (second compound 0.00316 µM, first compound 10 µM): 80.4% | viability, T/C (second compound 0.01 µM, first compound 0.0316 µM): 121% | viability, T/C (second compound 0.01 µM, first compound 0.1 µM): 85.3% | viability, T/C (second compound 0.01 µM, first compound 0.316 µM): 89.8% | viability, T/C (second compound 0.01 µM, first compound 1 µM): 94.9% | viability, T/C (second compound 0.01 µM, first compound 3.16 µM): 105% | viability, T/C (second compound 0.01 µM, first compound 10 µM): 81.3% | viability, T/C (second compound 0.0316 µM, first compound 0.0316 µM): 95.2% | viability, T/C (second compound 0.0316 µM, first compound 0.1 µM): 76.5% | viability, T/C (second compound 0.0316 µM, first compound 0.316 µM): 108% | viability, T/C (second compound 0.0316 µM, first compound 1 µM): 95.1% | viability, T/C (second compound 0.0316 µM, first compound 3.16 µM): 104% | viability, T/C (second compound 0.0316 µM, first compound 10 µM): 70.8% | viability, T/C (second compound 0.1 µM, first compound 0.0316 µM): 92.2% | viability, T/C (second compound 0.1 µM, first compound 0.1 µM): 78.7% | viability, T/C (second compound 0.1 µM, first compound 0.316 µM): 88% | viability, T/C (second compound 0.1 µM, first compound 1 µM): 108% | viability, T/C (second compound 0.1 µM, first compound 3.16 µM): 93% | viability, T/C (second compound 0.1 µM, first compound 10 µM): 66.7% | viability, T/C (second compound 0.316 µM, first compound 0.0316 µM): 89.7% | viability, T/C (second compound 0.316 µM, first compound 0.1 µM): 91.6% | viability, T/C (second compound 0.316 µM, first compound 0.316 µM): 79.2% | viability, T/C (second compound 0.316 µM, first compound 1 µM): 107% | viability, T/C (second compound 0.316 µM, first compound 3.16 µM): 100% | viability, T/C (second compound 0.316 µM, first compound 10 µM): 84.2% | viability, T/C (second compound 1 µM, first compound 0.0316 µM): 81.4% | viability, T/C (second compound 1 µM, first compound 0.1 µM): 82.5% | viability, T/C (second compound 1 µM, first compound 0.316 µM): 89.5% | viability, T/C (second compound 1 µM, first compound 1 µM): 88.7% | viability, T/C (second compound 1 µM, first compound 3.16 µM): 94.6% | viability, T/C (second compound 1 µM, first compound 10 µM): 83.5%

— PubChem BioAssay AID1963451 (Molecular Pharmacology Branch, DTP, NCI, 2024)
